Measurements from US6548449B1, “Substituted phenyluracils with herbicidal effect” (Bayer Aktiengesellschaft, priority 1998, dated 2003).

Experiments:
[1] = tested on: weeds; experiment: Post-emergence test, activity against weeds; type: in vivo; conditions: test plants of a height of 5-15 cm sprayed, rated after three weeks vs untreated control
Method: (§1) Solvent: 5 parts by weight of acetone
(§2) Emulsifier: 1 part by weight of alkylaryl polyglycol ether
To produce a suitable preparation of active compound, 1 part by weight of active compound is mixed with the stated amount of solvent, the stated amount of emulsifiers is added and the concentrate is diluted with water to the desired concentration.
Test plants of a height of 5-15 cm are sprayed with the preparation of active compound such that the particular amounts of active compound are employed per unit area. The concentration of the spray liquor is chosen so that the particular amounts of active compound desired are applied in 1000 l of water/ha.
(§3) After three weeks, the degree of damage to the plants is rated in % damage in comparison to the development of the untreated control.
(§4) 0%=no effect (like untreated control)

[2] = tested on: weeds; experiment: Pre-emergence test, activity against weeds; type: in vivo; conditions: soil sprayed about 24 hours after sowing, rated after three weeks vs untreated control
Method: as §1, §2
(§5) To produce a suitable preparation of active compound, 1 part by weight of active compound is mixed with the stated amount of solvent, the stated amount of emulsifier is added and the concentrate is diluted with water to the desired concentration.
(§6) Seeds of the test plants are sown in normal soil. After about 24 hours, the soil is sprayed with the preparation of active compounds such that the particular amounts of active compound desired are applied per unit area. The concentration of the spray liquor is chosen so that the particular amounts of active compound desired are applied in 1000 l of water/ha.
as §3, §4

[3] = tested on: crop plants, such as, for example, barley and cotton; experiment: Pre-emergence test, tolerance by crop plants; type: in vivo; conditions: rated after three weeks
Method: as §1, §2, §5, §6, §3, §4

| Compound | activity against weeds (degree of damage to the plants) [1] | melting point [°C] | activity against weeds (degree of damage to the plants) [2] | tolerance by crop plants [3] |
| --- | --- | --- | --- | --- |
| Cn1c(C(F)(F)F)cc(=O)n(-c2ccc(OCc3ccc(Cl)c(N)c3)cc2F)c1=O [Example 4, 1-[2-fluoro-4-(3-amino-4-chloro-benzyloxy)-phenyl]-3-methyl-4-trifluoromethyl-3,6-dihydro-2,6-dioxo-1 (2H)-pyrimidine] | very strong activity | 148 | – | – |
| CCS(=O)(=O)Nc1cc(COc2ccc(-n3c(=O)cc(C(F)(F)F)n(C)c3=O)c(F)c2)ccc1Cl [Example 5, 1-[2-fluoro-4-(4-chloro-3-ethylsulphonylamino-benzyloxy)-phenyl]-3-methyl-4-trifluoromethyl-3,6-dihydro-2,6-dioxo-1(2H)-pyrimidine] | very strong activity | 151 | very strong activity | tolerated well |
| O=c1cc(C(F)(F)F)[nH]c(=O)n1-c1ccc(OCc2ccc(Cl)c([N+](=O)[O-])c2)cc1F [Example 1, 1-[2-fluoro-4-(4-chloro-3-nitro-benzyloxy)-phenyl]-4-trifluoromethyl-3,6-dihydro-2,6-dioxo-1(2H)-pyrimidine] | – | 165 | – | – |
| Cn1c(C(F)(F)F)cc(=O)n(-c2ccc(OCc3ccc(Cl)c([N+](=O)[O-])c3)cc2F)c1=O [Example 2, 1-[2-fluoro-4-(4-chloro-3-nitro-benzyloxy)-phenyl]-3-methyl-4-trifluoromethyl-3,6-dihydro-2,6-dioxo-1 (2H)-pyrimidine] | very strong activity | 133 | – | – |
| Nn1c(C(F)(F)F)cc(=O)n(-c2ccc(OCc3ccc(Cl)c([N+](=O)[O-])c3)cc2F)c1=O [Example 3, 3-amino-1-[2-fluoro-4-(4-chloro-3-nitro-benzyl-oxy)-phenyl]-4-trifluoromethyl-3,6-dihydro-2,6-dioxo-1(2H)-pyrimidine] | very strong activity | 185 | – | – |
